Laboratory results from patent US9897592B2, “Methods for identifying arthropod repellents and attractants, and compounds and compositions identified by such methods” (The Regents of the University of California, priority 2013, dated 2018).
Where a name gives a salt, the structure may show the parent alone. Read-outs that look alike come from different tables or passages of the source.

Columns and labels:
CO2 receptor neuron [1] = assay: Amines: inhibition of CO2 receptor neuron activity; assay type: cell-based; parameters: % Inhibition: concentration or dose not given beside the values; conditions: for Average % Inhibition: dose response
cpA neuron [2] = assay: Single-sensillum recording: activation of cpA neuron by odorants; assay type: cell-based, Aedes aegypti; conditions: for Activation (spikes s^−1): A. aegypti cpA, 0.5-s pulses, odorants 10^−2 in paraffin oil or water, solvent response subtracted; for Activation (spikes s−1): cpA neuron, 20 compounds from the top 200 SVM ligand predictions, negative values = inhibition, N = 4
Method: FIG. 3b depicts representative traces and mean responses of the A. aegypti cpA neuron to 0.5-s pulses of 138 predicted compounds screened using single-sensillum recordings, in which odorants were diluted to 10^−2 in paraffin oil or water, and responses to solvent have been subtracted, n=2-6, and error bars are s.d.
FIG. 5f is a bar graph illustrating the mean responses of the A. aegypti cpA neuron to 0.5-s pulses of 22 newly predicted compounds screened as in FIG. 3b, where salmon bars correspond to odorants found in human odor, odorants were diluted to 10^−2 in paraffin oil or water, and responses to solvent have been subtracted, and n=2-5.
Adult female A. aegypti (Linnaeus 1762) (Rockefeller strain) A. gambiae sensu stricto Giles 1902 (G3 strain), or C. quinquefasciatus Say 1823 were tested 3-12 days post-emergence with single-sensillum extracellular recordings. Chemicals were obtained from Sigma-Aldrich at the highest purity (typically >99%) and were dissolved in paraffin oil or water. […] Response to clean beads was subtracted from the results reported. Only sensilla with cpA activity of <20 spikes s^−1 to negative control were considered for analysis.
(§1) CpA-off and sham treated mosquitoes were pre-treated for 3 min in an upended 1 L glass dish in which 100 μl of fresh butyryl chloride (1%) or paraffin oil was allowed to vaporize for 10-20 min. The odor delivery system for different screens is shown in FIG. 7b; solvent responses during the same recording session were subtracted. Inhibition screen was tested. For the ultra-prolonged activator the 3-s stimulus was delivered from a 10 ml disposable pipette using a CS-55 stimulus controller (Syntech), CO2 was delivered, and responses to subsequent odor stimuli were calculated by subtracting baseline activity 1 s prior to each stimulus. When responses to repeated pulses of cyclopentanone and CO2 were compared, baseline activity between seconds 5 and 6 following each stimulus was subtracted. Spike counting was done manually or with Igor Pro6.2 (Wavemetrics) with the Neuromatic v2.00 macro (by Jason Rothman), and peak-to-peak spike amplitudes for FIG. 8 were analysed in Clampfit 10.3 (Molecular Devices).
From the large list of cpA receptor ligands predicted from Example 3 above, 138 compounds were selected based on desirable criteria for application such as smell, presence in natural sources, human safety profile, and cost to procure. These compounds were tested individually using single-sensillum electrophysiology on the cp sensillum of female A. aegypti, according to the procedure described in Example 1 above.

cpA neuron [3] = assay: Inhibition screen: odorant overlaid on 0.15% CO2 stimulus, cpA response; assay type: cell-based, Aedes aegypti
Method: Percent inhibition was calculated by comparing mean odorant overlay responses to mean solvent overlay responses, and error bars are s.d.
as §1

CO2 receptor neuron [4] = assay: Activity of CO2 receptor neuron during spermidine and spermine stimulus windows; assay type: cell-based; conditions: CO2 receptor neuron activity during stimulus window
Method: The polyamines were diluted 0.001 to 10% in paraffin oil (PO). Also shown in Table 7 are the activity values of the CO2 receptor neuron during the spermidine and spermine stimulus windows (error bars=s.e.m.).

[5] = inhibition of CO2 receptor neuron activity by amines

Row | SMILES | Activation (spikes s^−1) (cpA neuron [2]) | further results
1 | NCCCNCCCCNCCCN |  | % Inhibition (CO2 receptor neuron [1]): 94.81%
2 | CN1CCCC1 [1-methylpyrrolidine] |  | % Inhibition (CO2 receptor neuron [1]; [5]): 100%
3 | CCCc1ccc(O)cc1 [4-propylphenol] | −9.0 spikes s^−1 | 
4 | CCCc1ccncc1 [4-propylpyridine] | 34.0 spikes s^−1 | 
5 | c1cnc2c(n1)CCCC2 [5,6,7,8-tetrahydroquinoxaline] | −5.5 spikes s^−1 | 
6 | C=Cc1scnc1C [5-ethenyl-4-methyl-1,3-thiazole] | 50.5 spikes s^−1 | 
7 | CC1=CCC(=O)O1 [5-methyl-3H-furan-2-one] | 56.0 spikes s^−1 | 
8 | Cc1cc(O)cc(O)c1 [5-methylbenzene-1,3-diol] | 0.5 spikes s^−1 | 
9 | CC1CCC(=O)O1 (stereo not shown) [5-methyloxolan-2-one] | 10.0 spikes s^−1 | 
10 | OCCCCCc1ccccc1 [5-phenylpentan-1-ol] | −3.0 spikes s^−1 | 
11 | CCCCCCC1CCCC(=O)O1 (stereo not shown) [6-hexyloxan-2-one] | 1.5 spikes s^−1 | 
12 | Cc1ccc2ncccc2c1 [6-methylquinoline] | 9.5 spikes s^−1 | 
13 | CC(C)=CCC/C(C)=C/C(=O)O [(2E)-3,7-dimethylocta-2,6-dienoic acid] | 3.0 spikes s^−1 | 
14 | CC(C)[C@H](N)C(=O)O [(2S)-2-amino-3-methylbutanoic acid] | 3.5 spikes s^−1 | 
15 | O=C(O)[C@@H]1CCCN1 [(2S)-pyrrolidine-2-carboxylic acid] | 3.5 spikes s^−1 | 
16 | C/C=C(\C)C(=O)O [(E)-2-methylbut-2-enoic acid] | 2.5 spikes s^−1 | 
17 | C/C=C/C(=O)O [(E)-but-2-enoic acid] | −1.5 spikes s^−1 | 
18 | CCC/C=C/CO [(E)-hex-2-en-1-ol] | 31.0 spikes s^−1 | 
19 | CC/C=C/C=O [(E)-pent-2-enal] | −5.0 spikes s^−1 | 
20 | CC/C=C\CCO [(Z)-hex-3-en-1-ol] | 2.5 spikes s^−1 | 
21 | CCCCCC/C=C\CO [(Z)-non-2-en-1-ol] | −1.5 spikes s^−1 | 
22 | CC/C=C\CCCCCO [(Z)-non-6-en-1-ol] | 2.0 spikes s^−1 | 
23 | NCCCCNCCCN [N-(3-aminopropyl)-1,4-butanediamine] |  | % Inhibition (CO2 receptor neuron [1]; [5]): 92.25%
24 | CNC [N-methylmethanamine] |  | % Inhibition (CO2 receptor neuron [1]): 100%
25 | c1ccsc1 [Thiophene] | 116.6 spikes s^−1 | 

Row | SMILES | Activation (spikes s^−1) (cpA neuron [2]) | further results
26 | CC(C)=CCC/C(C)=C/COC=O [[(2E)-3,7-dimethylocta-2,6-dienyl] formate] | −2.5 spikes s^−1 | 
27 | O=COC/C=C/c1ccccc1 [[(E)-3-phenylprop-2-enyl] formate] | 3.0 spikes s^−1 | 
28 | CC(=O)CC(=O)OCc1ccccc1 [benzyl 3-oxobutanoate] | −1.5 spikes s^−1 | 
29 | O=COCc1ccccc1 [benzyl formate] | 8.0 spikes s^−1 | 
30 | CCC(C)O (stereo not shown) [butan-2-ol] |  | Activation (spikes s−1) (cpA neuron [2]): 63.8 spikes s−1
31 | CC(S)C(C)S (stereo not shown) [butane-2,3-dithiol] | 25.0 spikes s^−1 | 
32 | O=C1CCCC(=O)C1 [cyclohexane-1,3-dione] | 1.5 spikes s^−1 | 
33 | OC1CCCCC1 [cyclohexanol] | 59.0 spikes s^−1 | 
34 | C1CCCC1 [cyclopentane] |  | Activation (spikes s−1) (cpA neuron [2]): 41.8 spikes s−1
35 | OC1CCCC1 [cyclopentanol] |  | Activation (spikes s−1) (cpA neuron [2]): 49.8 spikes s−1
36 | OCC1CCCC1 [cyclopentylmethanol] | 47.5 spikes s^−1 | 
37 | COC(=O)OC [dimethyl carbonate] | 73.6 spikes s^−1 | 
38 | C/C=C/C(=O)OCC [ethyl (E)-but-2-enoate] | 22.0 spikes s^−1 | 
39 | CCOC(C)=O [ethyl acetate] | 62.4 spikes s^−1 | 
40 | CCOC=O [ethyl formate] | 34.5 spikes s^−1 | 
41 | O=Cc1ccoc1 [furan-3-carbaldehyde] | 85.0 spikes s^−1 | 
42 | CCCC(O)CCC [heptan-4-ol] | −3.0 spikes s^−1 | 
43 | C=CCCC(C)=O [hex-5-en-2-one] | 63.4 spikes s^−1 | 
44 | CCCCCCN [hexan-1-amine] |  | % Inhibition (CO2 receptor neuron [1]; [5]): 86.61%
45 | COCc1ccccc1 [methoxymethylbenzene] | 12.0 spikes s^−1 | 
46 | C=C(C)C(=O)OC [methyl 2-methylprop-2-enoate] | 45.0 spikes s^−1 | 
47 | COC(=O)C(C)C [methyl 2-methylpropanoate] | 49.4 spikes s^−1 | 
48 | COC(=O)C(C)=O [methyl 2-oxopropanoate] |  | fold lower concentration for comparable inhibition vs previously reported inhibitors such as 1-hexanol (cpA neuron [3]): ~10 times; inhibition of cpA activity (cpA neuron [3]; overlaid on 0.15% CO2): strongly inhibited
49 | COC(C)=O [methyl acetate] | −50.5 spikes s^−1 | 
50 | CCCC(=O)OC [methyl butanoate] | 44.5 spikes s^−1 | 

Row | SMILES | Activation (spikes s^−1) (cpA neuron [2]) | further results
51 | COC=O [methyl formate] |  | Activation (spikes s−1) (cpA neuron [2]): 59.3 spikes s−1
52 | CCC(=O)OC [methyl propanoate] | 75.0 spikes s^−1 | 
53 | CC1CCCC1 [methylcyclopentane] |  | Activation (spikes s−1) (cpA neuron [2]): 16.3 spikes s−1
54 | CSC [methylsulfanylmethane] |  | Activation (spikes s−1) (cpA neuron [2]): 99.3 spikes s−1
55 | C=CC(CCCCC)OC(=O)CCC (stereo not shown) [oct-1-en-3-yl butanoate] | 0.0 spikes s^−1 | 
56 | CC(=O)OCC1CCCO1 (stereo not shown) [oxolan-2-ylmethyl acetate] | 10.0 spikes s^−1 | 
57 | CCCCCN [pentan-1-amine] |  | % Inhibition (CO2 receptor neuron [1]; [5]): 100%
58 | CCCCCO [pentan-1-ol] | 50.5 spikes s^−1 | 
59 | O=C1CNCCN1 [piperazin-2-one] | −3.2 spikes s^−1 | 
60 | O=C1CCCCN1 [piperidin-2-one] | 0.0 spikes s^−1 | 
61 | C=CCOC(=O)CCC [prop-2-enyl butanoate] | 16.0 spikes s^−1 | 
62 | C=CCOC(=O)CC [prop-2-enyl propanoate] | 49.5 spikes s^−1 | 
63 | CCCO [propan-1-ol] |  | Activation (spikes s−1) (cpA neuron [2]): 60.8 spikes s−1
64 | CC(C)O [propan-2-ol] |  | Activation (spikes s−1) (cpA neuron [2]): 25.3 spikes s−1
65 | CC(C)OC(=O)c1ccccc1 [propan-2-yl benzoate] | 6.0 spikes s^−1 | 
66 | CC(C)OC=O [propan-2-yl formate] |  | Activation (spikes s−1) (cpA neuron [2]): 63.8 spikes s−1
67 | CCC=O [propanal] |  | Activation (spikes s−1) (cpA neuron [2]): −33.8 spikes s−1
68 | CCCS [propane-1-thiol] | 75.0 spikes s^−1 | 
69 | CCCOC(C)=O [propyl acetate] | 52.6 spikes s^−1 | 
70 | CCCOC=O [propyl formate] | 58.0 spikes s^−1 | 
71 | c1ccnnc1 [pyridazine] | 2.5 spikes s^−1 | 
72 | O=C1CCCN1 [pyrrolidin-2-one] | 0.0 spikes s^−1 | 
73 | NCCCCNCCCN [spermidine] |  | Average % Inhibition (CO2 receptor neuron [1]; 0.001% in paraffin oil): −1.0%; Average % Inhibition (CO2 receptor neuron [1]; 0.01% in paraffin oil): 10.6%; Average % Inhibition (CO2 receptor neuron [1]; 0.1% in paraffin oil): 85.1%; Average % Inhibition (CO2 receptor neuron [1]; 1% in paraffin oil): 92.2%; Average % Inhibition (CO2 receptor neuron [1]; 10% in paraffin oil): 91.3%; Ave. Activity (CO2 receptor neuron [4]; 0.001% in paraffin oil): 62.3; Ave. Activity (CO2 receptor neuron [4]; 0.01% in paraffin oil): 55.3; Ave. Activity (CO2 receptor neuron [4]; 0.1% in paraffin oil): 10.0; Ave. Activity (CO2 receptor neuron [4]; 1% in paraffin oil): 5.3; Ave. Activity (CO2 receptor neuron [4]; 10% in paraffin oil): 6.0
74 | NCCCNCCCCNCCCN [spermine] |  | Average % Inhibition (CO2 receptor neuron [1]; 0.001% in paraffin oil): −5.6%; Average % Inhibition (CO2 receptor neuron [1]; 0.01% in paraffin oil): −3.2%; Average % Inhibition (CO2 receptor neuron [1]; 0.1% in paraffin oil): 76.5%; Average % Inhibition (CO2 receptor neuron [1]; 1% in paraffin oil): 94.8%; Average % Inhibition (CO2 receptor neuron [1]; 10% in paraffin oil): 95.1%; Ave. Activity (CO2 receptor neuron [4]; 0.001% in paraffin oil): 52.0; Ave. Activity (CO2 receptor neuron [4]; 0.01% in paraffin oil): 52.3; Ave. Activity (CO2 receptor neuron [4]; 0.1% in paraffin oil): 14.0; Ave. Activity (CO2 receptor neuron [4]; 1% in paraffin oil): 2.7; Ave. Activity (CO2 receptor neuron [4]; 10% in paraffin oil): 2.3
75 | Sc1cccs1 [thiophene-2-thiol] |  | Activation (spikes s−1) (cpA neuron [2]): −35.5 spikes s−1
